# Key:
# Experiment in all cases: Cysteine liganding, probe competition
# Assay type in all cases: binding
# [1] = target: T1, RPUSD3 RNA pseudouridylate synthase domain-containing pro (Homo sapiens, UniProt Q6P087)
# T1 construct: Cells were resuspended in cold PBS on ice and sonicated with a probe sonicator to achieve lysis; endogenous in cells
# T1 sequence (Q6P087 26-351): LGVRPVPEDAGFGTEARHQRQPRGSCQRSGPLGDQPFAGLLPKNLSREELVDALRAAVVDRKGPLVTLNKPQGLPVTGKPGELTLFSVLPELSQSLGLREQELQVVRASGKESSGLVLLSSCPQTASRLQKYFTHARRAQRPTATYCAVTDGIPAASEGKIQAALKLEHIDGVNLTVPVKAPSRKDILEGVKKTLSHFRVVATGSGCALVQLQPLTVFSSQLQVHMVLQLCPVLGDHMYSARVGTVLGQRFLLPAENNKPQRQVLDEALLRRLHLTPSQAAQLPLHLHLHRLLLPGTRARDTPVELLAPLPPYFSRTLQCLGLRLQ
# Procedure, shortened: (§1)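 Steps: sonicate cells in cold PBS; treat 5 mg/ml lysate with compound (25° C, 1 hr); add desthiobiotin iodoacetamide probe from a 10 mM stock (25° C, 1 hr); precipitate, reduce, alkylate, digest with trypsin; capture labelled peptides on streptavidin for analysis.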
# [2] = target: T2, TRIM65 Tripartite motif-containing protein 65 (Homo sapiens, UniProt Q6PJ69)
# T2 construct: Cells were resuspended in cold PBS on ice and sonicated with a probe sonicator to achieve lysis; endogenous in cells
# T2 sequence (Q6PJ69 1-517): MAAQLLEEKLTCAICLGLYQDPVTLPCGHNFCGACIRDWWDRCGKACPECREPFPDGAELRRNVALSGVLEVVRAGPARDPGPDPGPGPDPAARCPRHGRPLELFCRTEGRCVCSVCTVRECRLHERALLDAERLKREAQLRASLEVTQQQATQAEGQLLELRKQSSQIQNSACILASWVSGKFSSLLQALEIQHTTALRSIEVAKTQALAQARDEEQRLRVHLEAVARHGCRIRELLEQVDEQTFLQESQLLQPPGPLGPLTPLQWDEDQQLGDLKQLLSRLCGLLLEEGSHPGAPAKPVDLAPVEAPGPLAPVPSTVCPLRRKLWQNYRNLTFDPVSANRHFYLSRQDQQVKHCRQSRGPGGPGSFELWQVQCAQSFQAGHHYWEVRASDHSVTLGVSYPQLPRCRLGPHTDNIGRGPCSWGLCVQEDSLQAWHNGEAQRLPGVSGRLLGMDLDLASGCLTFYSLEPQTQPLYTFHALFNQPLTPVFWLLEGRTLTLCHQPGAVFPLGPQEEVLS
# Procedure, shortened: as §1
# HIST1H3J Histone H3.1 = target: T3, HIST1H3J Histone H3.1 (Homo sapiens, UniProt P68431); conditions: for Liganded: HIST1H3J Res# 111, uniprot P68431
# T3 construct: Cells were resuspended in cold PBS on ice and sonicated with a probe sonicator to achieve lysis; endogenous in cells
# Procedure, shortened: as §1
# [3] = target: T4, RNF214 RING finger protein 214 (Homo sapiens, UniProt Q8ND24); conditions: for Liganded: RNF214 Res# 655, uniprot Q8ND24
# T4 construct: Cells were resuspended in cold PBS on ice and sonicated with a probe sonicator to achieve lysis; endogenous in cells
# T4 sequence (Q8ND24 whole entry): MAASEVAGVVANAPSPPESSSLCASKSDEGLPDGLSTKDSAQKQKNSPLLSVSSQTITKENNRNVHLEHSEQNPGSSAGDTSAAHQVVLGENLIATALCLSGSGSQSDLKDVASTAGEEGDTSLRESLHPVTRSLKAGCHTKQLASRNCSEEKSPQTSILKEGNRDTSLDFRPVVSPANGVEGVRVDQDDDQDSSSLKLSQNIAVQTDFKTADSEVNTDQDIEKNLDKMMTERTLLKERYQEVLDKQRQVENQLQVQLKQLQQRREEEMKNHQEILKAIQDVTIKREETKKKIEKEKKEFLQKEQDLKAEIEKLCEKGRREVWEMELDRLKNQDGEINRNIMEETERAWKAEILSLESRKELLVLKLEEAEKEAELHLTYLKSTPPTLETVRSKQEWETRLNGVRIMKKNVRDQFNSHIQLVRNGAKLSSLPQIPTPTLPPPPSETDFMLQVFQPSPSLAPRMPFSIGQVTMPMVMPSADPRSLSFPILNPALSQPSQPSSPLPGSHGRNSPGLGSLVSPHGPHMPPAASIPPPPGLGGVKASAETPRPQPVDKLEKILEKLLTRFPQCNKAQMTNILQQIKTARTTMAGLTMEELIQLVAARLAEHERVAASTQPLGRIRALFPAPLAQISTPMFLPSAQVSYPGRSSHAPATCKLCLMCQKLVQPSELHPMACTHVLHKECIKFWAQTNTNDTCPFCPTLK
# Procedure, shortened: as §1
Structure (SMILES),"Liganded ([1]; RPUSD3 Res# 147, uniprot Q6P087)","Liganded ([2]; TRIM65 Res# 320, uniprot Q6PJ69)",Liganded (HIST1H3J Histone H3.1),Liganded [3],100 Max ([1]; uniprot Q6P087),100 ave ([1]; uniprot Q6P087),500 Max ([1]; uniprot Q6P087),500 ave ([1]; uniprot Q6P087),100 Max ([2]; uniprot Q6PJ69),100 ave ([2]; uniprot Q6PJ69),500 Max ([2]; uniprot Q6PJ69),500 ave ([2]; uniprot Q6PJ69),100 ave (HIST1H3J Histone H3.1; uniprot P68431),500 Max (HIST1H3J Histone H3.1; uniprot P68431),500 ave (HIST1H3J Histone H3.1; uniprot P68431),"100 Max (HIST1H3J Histone H3.1; uniprot P68431, in % (unit assumed))",100 ave ([3]; uniprot Q8ND24),500 Max ([3]; uniprot Q8ND24),500 ave ([3]; uniprot Q8ND24),"100 Max ([3]; uniprot Q8ND24, unit assumed) [%]"
COc1ccc2c(c1)CCCN2C(=O)CCl [KB02],YES,YES,YES,YES,–,–,–,–,–,–,–,–,–,–,–,–,–,–,–,–
O=C(CCl)Nc1cc(C(F)(F)F)cc(C(F)(F)F)c1 [KBO3],–,–,YES,YES,14.63,9.07,49.47,49.47,35.1,19.4,70.9,60.2,22.28,79.39,79.39,50.87,24.8,96.4,65.9,35.5
